Patent publication US10590393B2, “Retinoic acid enhanced human stem cell derived blood brain barrier model” (Wisconsin Alumni Research Foundation, priority 2012, dated 2020)
Read-outs that look alike come from different tables or passages of the source.

What was measured:
[1] = test system: iPSC-derived BMECs; assay: Test of compounds for the ability to mimic the activity of RA (elevated TEER); format: cell-based, human; settings: for induction of elevated TEER: ability to mimic the activity of RA
Text: Further, Applicants tested a list of compounds for the ability to mimic the activity of RA.
A typical retinoic acid-enhanced blood brain barrier is created as described below and in the figures. Retinoic acid suitable for the present invention may be obtained from commercial sources such as Sigma-Aldrich. […] Both types of RA are suitable for the present invention.

[2] = test system: IMR90-4-derived BMECs; assay: in vitro; settings: for permeability: human, 1 h
Procedure: (§1) To determine Pe values for radiolabeled compounds, each compound was diluted to 0.4 μCi in transport buffer (distilled water with 0.12 M NaCl, 25 mM NaHCO3, 3 mM KCl, 2 mM MgSO4, 2 mM CaCl2, 0.4 mM K2HPO4, 1 mM HEPES, and 0.1% bovine serum albumin [BSA; Sigma]). 200 μL aliquots were extracted from the basolateral chamber every 15 min and replaced by fresh transport buffer. […] [^3H]-vincristine was purchased from American Radiolabeled Chemicals (St. Louis, Mo., USA), while all other radiolabeled compounds were acquired from PerkinElmer (Waltham, Mass., USA). All compound incubations were conducted at 37° C. and carried out on a rotator. Triplicate filters were used for all permeability studies.

[3] = in vitro; settings: human, permeability
Procedure: as §1

[4] = test system: hCMEC/D3 immortalized human BMEC line; settings: cited from earlier work
[5] = RA treatment and optimized neural cell co-culture

| Compound | induction of elevated TEER [1] | further results |
| --- | --- | --- |
| O=Cc1c2[nH]c3ccccc3c2cc2[nH]c3ccccc3c12 [6-formylindolo[3,2-B]carbazole] | not to induce elevated TEER |  |
| CCCCCC#CCC#CCC#CCC#CCCCC(=O)O [5,8,11,14-eicosatetraynoic acid] | not to induce elevated TEER |  |
| CC1=C(/C=C/C(C)=C\C=C\C(C)=C\C(=O)O)C(C)(C)CCC1 [9-cis RA] |  | enhancement by RA isoform ([1]; two isoforms of RA tested): producing the desired enhancement |
| C=C1CC[C@H](O)C/C1=C/C=C1\CCC[C@]2(C)[C@@H]([C@H](C)CCCC(C)(C)O)CC[C@@H]12 [25-hydroxyvitamin D3] | not to induce elevated TEER |  |
| C[C@H](CCC(=O)O)[C@H]1CC[C@H]2[C@@H]3[C@H](O)C[C@@H]4C[C@H](O)CC[C@]4(C)[C@H]3C[C@H](O)[C@]12C [cholic acid] | not to induce elevated TEER |  |
| Clc1ccc(-c2nc3sccn3c2/C=N/OCc2ccc(Cl)c(Cl)c2)cc1 [CITCO] | not to induce elevated TEER |  |
| CCCCC[C@H](O)/C=C/[C@@H]1[C@H]2C/C(=C/CCCC(=O)O)C[C@H]2C[C@H]1O [carbacyclin] | induce elevated TEER |  |
| CD 3254 | induce elevated TEER |  |
| COc1cc2c(c(OC)c1OC)-c1ccc(OC)c(=O)cc1[C@@H](NC(C)=O)CC2 [Colchicine, colchicine] |  | Average Pe [2, 5]: 0.015 ± 0.007 10^−3 cm/min; Average Pe ([2]; RA treatment only): 0.023 ± 0.0096 10^−3 cm/min; Papp A→B at 1 h ([3]; RA-treated cells without co-culture): 0.383 ×10⁻⁶ cm/s; Papp A→B at 1 h ([3]; optimized co-culture conditions (pericyte/hNPC), RA-treated): 0.25 ×10⁻⁶ cm/s; permeability ([4]; hCMEC/D3, colchicine and vincristine estimated from graphical data): approximately 1.6×10^−3 cm/min |
| CC(=O)[C@H]1[C@H](C#N)C[C@H]2[C@@H]3CC=C4C[C@@H](O)CC[C@]4(C)[C@H]3CC[C@@]21C [pregnenolone-16α-carbonitrile] | not to induce elevated TEER |  |
| CC/C=C\C/C=C\C/C=C\C/C=C\C/C=C\C/C=C\CCC(=O)O [docosa-4Z,7Z,10Z,13Z,16Z,19Z-hexaenoic acid] | not to induce elevated TEER |  |
| CC1(C)CC=C(c2ccccc2)c2cc(/C=C/c3ccc(C(=O)O)cc3)ccc21 [BMS 453] | not to induce elevated TEER |  |
| N[C@@H](Cc1cc(I)c(Oc2ccc(O)cc2)c(I)c1)C(=O)O [3,5-diiodo-L-thyronine] | not to induce elevated TEER |  |
| Cc1cccc(Nc2cc(Cl)nc(SCC(=O)O)n2)c1C [WY-14643] | not to induce elevated TEER |  |
| COc1cc2nc(N3CCN(C(=O)c4ccco4)CC3)nc(N)c2cc1OC [Prazosin, prazosin] |  | Average Pe [2, 5]: 0.11 ± 0.006 10^−3 cm/min; Average Pe ([2]; RA treatment only): 0.2 ± 0.05 10^−3 cm/min; permeability [2]: 2±0.5×10^−4 cm/min; Papp A→B at 1 h [3]: 1.83 ×10⁻⁶ cm/s |
| CC1(C)C(=O)C(C)(C)c2cc(C(=O)Nc3ccc(C(=O)O)cc3)ccc21 [BMS 753] | induce elevated TEER |  |
| O=C(O)CCc1cc(I)c(O)c(I)c1 [3,5-diiodo-4-hydroxyphenylpropionic acid] | not to induce elevated TEER |  |
| CC[C@]1(O)C[C@H]2CN(CCc3c([nH]c4ccccc34)[C@@](C(=O)OC)(c3cc4c(cc3OC)N(C=O)[C@H]3[C@@](O)(C(=O)OC)[C@H](OC(C)=O)[C@]5(CC)C=CCN6CC[C@]43[C@@H]65)C2)C1 [Vincristine, vincristine] |  | permeability [2]: 3.5±0.9×10^−5 cm/min; Papp A→B at 1 h [3]: 0.433 ×10⁻⁶ cm/s; permeability [4]: approximately 0.75×10^−3 cm/min |
